These are literature values, as cited in US20140010903A1, “Curcuminoid composition with enhanced bioavailability and a process for its preparation” (Akay Flavours & Aromatics Pvt Ltd., priority 2012, published 2014).

On to `O=C(/C=C/C=C/c1ccc2c(c1)OCO2)N1CCCCC1` [piperine], for which the “Toxicity in animal studies” value is “toxic”.
